Here are results for 30 compounds from patent US11192865B2, “Benzosulfonyl compounds” (Vivace Therapeutics, Inc., priority 2017, dated 2021).

In the assay the test system is 8XTBD luciferase reporter. Nature of the assay: YAP Reporter Assay. It counts as cell-based. To be noted: Homo sapiens, HEK-293T; HEK293T cells stably transfected with 8XTBD luciferase reporter and pRLTK; 24-hr incubation; starting from 3 μM, 1:3 dilution, 10 points; read-out: Firefly Luciferase IC50. How it is done: HEK293T cells stably transfected with 8XTBD luciferase reporter and pRLTK in 384-well plates were treated with the test compounds, starting from 3 μM (final concentration in assay plate), 1:3 dilution, and 10 points in quadruplicates. Post 24-hr incubation with compounds at 37° C. and 5% CO2, cells were lysed and 8XTBD-driven firefly luciferase and control TK-driven renilla luciferase activities were measured using Promega Dual-Luciferase Reporter Assay System.
Reagents: The reagents used for this study are: DMEM: Invitrogen #11960077, Dual-Glo Luciferase Assay System: Promega-E2980, Puromycin Dihydrochloride: Invitrogen-A1113803, 384-well plate: PerkinElmer-6007480, L-GLUTAMINE: Invitrogen-25030164, Hygromycin B: Invitrogen-10687010, and Penicillin-Streptomycin: Merk-TMS-AB2-C
Media: The media used for this assay were: Culture Medium: DMEM+1 ug/mL puromycin+200 ug/mL hygromycin (with 10% FBS+1 mM L-glutamine); and Assay Medium: DMEM (with 10% FBS+1 mM L-glutamine+1×P/S).
Cell Plating: The appropriate media was warmed at 37° C. by water bath: Culture Medium, Assay Medium, 1* D-PBS, 0.05% trypsin-EDTA. The cells were trypsinized after removing all media, then washed with 1* sterile D-PBS and then with 2 ml 0.05% trypsin-EDTA. The cells were then incubated at RT for one minute. Then 10 ml/75 cm2 flask Assay Medium was added to each flask. Using a 10 ml pipette, the cells were then gently resuspended in the media, until the clumps completely disappeared. The cells were then transferred into 50 ml centrifuge tubes and were centrifuged at 800 rpm for 5 mins. The medium was removed and the cells were resuspended with Assay Medium. An aliquot of cells was used to count the cell density (cells/ml). The cell suspension was then diluted with Assay Medium to a concentration of 6×10^4 cells/ml. 50 ul cells suspension was then plated to 384-well plate (PerkinElmer-6007480), 3×10^3 cells/well and the cells were incubated in an incubator at 37° C., 5% CO2.
Compound Treatment: In the afternoon (incubation of the plate with 3-4 hrs), the test compounds were added by Echo, starting from 3 uM (final concentration in the assay plate), 1:3 dilution, 10 points, quadruplicates. The plate was placed at 37° C., 5% CO2 incubator for 24 hrs.
Detection: The Dual-Glo Luciferase Reagent was prepared by transferring the contents of one bottle of Dual-Glo Luciferase Buffer to one bottle of Dual-Glo Luciferase Substrate to create the Dual-Glo Luciferase Reagent. Mixing was performed by inversion until the substrate was thoroughly dissolved. After mixing, the reagent was aliquoted into 15 ml tubes. In the afternoon (24 hrs post compound treatment), the DMEM+ medium in the 384 well plates were aspirated by Microplate Washer.
Measuring firefly luciferase activity: 20 ul Dual-Glo Luciferase Reagent was added to the 384-well plates. The plates were protected from light to prevent interference with the assay. The plates were shaken for 1 min followed centrifuging plates at 1000 rpm for 30 seconds. After waiting at least 10 minutes, the firefly luminescence was measured by Envision.
Measuring renilla luciferase activity: 20 ul Stop-Glo Reagent was added to the 384-well plates. The plates were shaken for 1 min and then centrifuged at 1000 rpm for 30 seconds. After waiting at least 10 minutes, the renilla luminescence was measured by Envision.
Compound IC50 and maximum inhibition on the firefly luciferase and renilla luciferase activities were reported separately.
(In a reporter assay the amount or activity of a reporter protein is the signal.)

SMILES strings stand for the structures. A value given as a limit tells only on which side of the number the result lay.

One may read the IC50 as the concentration needed to halve the response being measured. For the compound `CNS(=O)(=O)c1ccc(NC2CCCCC2)c(-c2nnn(CCO)n2)c1` [Compound 44, 4-(cyclohexylamino)-3-(2-(2-hydroxyethyl)-2H-tetrazol-5-yl)-N-methylbenzenesulfonamide], the half-maximal inhibitory concentration (IC50) lay in the range of 100 to 1000 nM. The result for `CNS(=O)(=O)c1ccc(NC2CCCCC2)c(-c2nnn(C3CCCN(c4cccnc4)C3)n2)c1` (stereo not drawn) [Compound 86, 4-(cyclohexylamino)-N-methyl-3-(2-(1-(pyridin-3-yl)piperidin-3-yl)-2H-tetrazol-5-yl)benzenesulfonamide] reads 100 to 1000 nM; that for `CNS(=O)(=O)c1ccc(Nc2cccc(-c3ccccc3)c2)c(-c2nnn(C)n2)c1` [Compound 131, N-methyl-3-(2-methyltetrazol-5-yl)-4-(3-phenylanilino) benzenesulfonamide], at most 100 nM. In the case of `CNS(=O)(=O)c1ccc(Nc2cccc(OC(F)(F)F)c2)c(-c2nnnn2C)c1` [Compound 100, N-methyl-3-(1-methyl-1H-tetrazol-5-yl)-4-((3-(trifluoromethoxy)phenyl)amino)benzenesulfonamide], the IC50 is over 3000 nM. Take `CNS(=O)(=O)c1ccc(NC2CCCCC2)c(-c2nnn(C3CCN(c4ccccc4)CC3)n2)c1` [Compound 38, 4-(cyclohexylamino)-N-methyl-3-(2-(1-phenylpiperidin-4-yl)-2H-tetrazol-5-yl)benzenesulfonamide]: the IC50 is over 3000 nM.

Take `CNS(=O)(=O)c1ccc(Nc2ccccc2)c(-c2nnn(C)n2)c1` [Compound 90, N-methyl-3-(2-methyl-2H-tetrazol-5-yl)-4-(phenylamino)benzenesulfonamide]: the half-inhibitory concentration (IC50) was at most 100 nM. The result for `CNS(=O)(=O)c1ccc(NC2CCCCC2)c(-c2nnn(-c3ccccc3)n2)c1` [Compound 34, 4-(cyclohexylamino)-N-methyl-3-(2-phenyl-2H-tetrazol-5-yl)benzenesulfonamide] reads over 3000 nM. For `CNS(=O)(=O)c1ccc(Nc2cc(F)ccc2F)c(-c2nnnn2C)c1` [Compound 109, 4-((2,5-difluorophenyl)amino)-N-methyl-3-(1-methyl-1H-tetrazol-5-yl)benzenesulfonamide] the value was over 3000 nM. For the compound `CNS(=O)(=O)c1ccc(NC2CCCCC2)c(-c2nnn(C3CCN(C(C)C)C3)n2)c1` (stereo not drawn) [Compound 36, 4-(cyclohexylamino)-3-(2-(1-isopropylpyrrolidin-3-yl)-2H-tetrazol-5-yl)-N-methylbenzenesulfonamide], the half-maximal inhibitory concentration (IC50) lay in the range of 1000 to 3000 nM. For `CNS(=O)(=O)c1ccc(NC2CCCCC2)c(-c2ncccc2C)c1` [Compound 78, 4-(cyclohexylamino)-N-methyl-3-(3-methylpyridin-2-yl)benzenesulfonamide], the IC50 is over 3000 nM. For `CNS(=O)(=O)c1ccc(NC2CCCCC2)c(-c2nnn(CC(C)C)n2)c1` [Compound 27, 4-(cyclohexylamino)-3-(2-isobutyl-2H-tetrazol-5-yl)-N-methylbenzenesulfonamide], the IC50 was 100 to 1000 nM. The result for `CNS(=O)(=O)c1ccc(NC2CCCCC2)c(-c2nnn(C3CCN(C(=O)OC(C)(C)C)CC3)n2)c1` [Compound 28, tert-butyl 4-(5-(2-(cyclohexylamino)-5-(N-methylsulfamoyl)phenyl)-2H-tetrazol-2-yl)piperidine-1-carboxylate] reads over 3000 nM; that for `CNS(=O)(=O)c1ccc(N[C@H]2CC[C@@H](C(F)(F)F)CC2)c(-c2cn(C)cn2)c1` [Compound 150, N-methyl-3-(1-methyl-1H-imidazol-4-yl)-4-(((1s,4s)-4-(trifluoromethyl)cyclohexyl)amino) benzenesulfonamide], at most 100 nM. `CNS(=O)(=O)c1ccc(Nc2ccc(-c3ccccc3)cc2)c(-c2nnn(C)n2)c1` [Compound 128, N-methyl-3-(2-methyltetrazol-5-yl)-4-(4-phenylanilino) benzenesulfonamide]: the IC50 is 1000 to 3000 nM. Consider `CNS(=O)(=O)c1ccc(NC2CCCCC2)c(-c2ncccc2F)c1` [Compound 79, 4-(cyclohexylamino)-3-(3-fluoropyridin-2-yl)-N-methylbenzenesulfonamide], for which the half-maximal inhibitory concentration (IC50) is at most 100 nM. The result for `CNS(=O)(=O)c1ccc(Nc2cccc(F)c2)c(-c2nnn(C)n2)c1` [Compound 117, 4-((3-fluorophenyl)amino)-N-methyl-3-(2-methyl-2H-tetrazol-5-yl)benzenesulfonamide] reads 100 to 1000 nM; that for `CNS(=O)(=O)c1ccc(NC2CCCCC2)c(-c2nnn(C3CCN(c4cccnc4)CC3)n2)c1` [Compound 33, 4-(cyclohexylamino)-N-methyl-3-(2-(1-(pyridin-3-yl)piperidin-4-yl)-2H-tetrazol-5-yl)benzenesulfonamide], 100 to 1000 nM; that for `CNS(=O)(=O)c1ccc(Nc2ccccc2C(F)(F)F)c(-c2nnnn2C)c1` [Compound 98, N-methyl-3-(1-methyl-1H-tetrazol-5-yl)-4-((2-(trifluoromethyl)phenyl)amino)benzenesulfonamide], over 3000 nM. The result for `CNS(=O)(=O)c1ccc(NC2CCCCC2)c(-c2nnn(C3CCN(S(C)(=O)=O)C3)n2)c1` (stereo not drawn) [Compound 43, 4-(cyclohexylamino)-N-methyl-3-(2-(1-(methylsulfonyl)pyrrolidin-3-yl)-2H-tetrazol-5-yl)benzenesulfonamide] reads over 3000 nM; that for `CNS(=O)(=O)c1ccc(Nc2ccccc2OC(F)(F)F)c(-c2nnn(C)n2)c1` [Compound 102, N-methyl-3-(2-methyl-2H-tetrazol-5-yl)-4-((2-(trifluoromethoxy)phenyl)amino)benzenesulfonamide], over 3000 nM. The result for `CNS(=O)(=O)c1ccc(NC2CCCCC2)c(-c2cn(C(C)C)cn2)c1` [Compound 113, 4-(cyclohexylamino)-3-(1-isopropyl-1H-imidazol-4-yl)-N-methylbenzenesulfonamide] reads at most 100 nM; that for `CNS(=O)(=O)c1ccc(Nc2cccc(C(F)(F)F)c2)c(-c2nnn(Cc3ccccc3F)n2)c1` [Compound 136, 3-[2-[(2-Fluorophenyl)methyl]tetrazol-5-yl]-N-methyl-4-[3-(trifluoromethyl)anilino]benzene-sulfonamide], at most 100 nM; that for `CNS(=O)(=O)c1ccc(NC2CCCCC2)c(-c2ccccn2)c1` [Compound 64, 4-(cyclohexylamino)-N-methyl-3-(pyridin-2-yl)benzenesulfonamide], at most 100 nM. Consider `Cn1nnc(-c2cc(S(C)(=O)=O)ccc2NC2CCCCC2)n1` [Compound 5, N-cyclohexyl-2-(2-methyl-2H-tetrazol-5-yl)-4-(methylsulfonyl)aniline], for which the IC50 was in the range of 100 to 1000 nM. As to `CS(=O)(=O)c1ccc(NC2CCCCC2)c(-n2cccn2)c1` [Compound 10, N-cyclohexyl-4-(methylsulfonyl)-2-(1H-pyrazol-1-yl)aniline], the IC50 fell in the range of 1000 to 3000 nM. The result for `CS(=O)(=O)c1ccc(NC2CCCCC2)c(-n2cncn2)c1` [Compound 12, N-cyclohexyl-4-(methylsulfonyl)-2-(1H-1,2,4-triazol-1-yl)aniline] reads over 3000 nM; that for `CNS(=O)(=O)c1ccc(Nc2cc(F)cc(F)c2)c(-c2nnn(C)n2)c1` [Compound 108, 4-((3,5-difluorophenyl)amino)-N-methyl-3-(2-methyl-2H-tetrazol-5-yl)benzenesulfonamide], 100 to 1000 nM; that for `CNS(=O)(=O)c1ccc(NC2CCCCC2)c(-c2n[nH]c(C)n2)c1` [Compound 66, 4-(cyclohexylamino)-N-methyl-3-(5-methyl-1H-1,2,4-triazol-3-yl)benzenesulfonamide], 100 to 1000 nM. Regarding `CNS(=O)(=O)c1ccc(NC2CCCCC2)c(-c2noc(C)n2)c1` [Compound 48, 4-(cyclohexylamino)-N-methyl-3-(5-methyl-1,2,4-oxadiazol-3-yl)benzene sulfonamide], the IC50 was at most 100 nM. Take `Cc1nc(-c2cc(S(C)(=O)=O)ccc2NC2CCCCC2)no1` [Compound 3, N-cyclohexyl-2-(5-methyl-1,2,4-oxadiazol-3-yl)-4-(methylsulfonyl)aniline]: the 50% inhibitory concentration (IC50) was at most 100 nM.
